Assay results published in patent US6767558B2, “Inhibiting oxidative degradation of pharmaceutical formulations” (Pfizer Inc., priority 2000, dated 2004).

Experiments:
[1] = Accelerated stability of Compound 2 formulations; N-oxide degradation product by RPLC; type: physicochemical; conditions: addition of ferrous ion source to the formulations, six weeks
Experimental: Compound 2 was similarly formulated with, inter alia, excipients comprising about 0.01% of ferrous ammonium sulfate hexahydrate into solid binary pharmaceutical formulations. The excipients further included microcrystalline cellulose (Avicel®), lactose, or silicified microcrystalline cellulose (Prosolv®; Penwest Pharmaceuticals; Patterson, N.Y.).
The formulations so prepared were then stored under accelerated stability conditions, i.e. at 40° C. at 75% relative humidity and 50° C. at 20% relative humidity for six weeks. Reversed-phase ion pair liquid chromatography (RPLC) was used to separate Compound 2 from its N-oxide oxidative degradation product. RPLC was performed utilizing a Waters Symmetry C18 column (Waters Instrument Co.; Milford, Mass.) 15 cm length×3.9 mm I.D. at a temperature of 40° C. using a mobile phase of buffer (20 mM KH2PO4 (pH adjusted to 3.0 with phosphoric acid, with 0.1% octanesulfonic acid): acetonitrile (60:40 v/v), a flow rate of 1.0 mL/min., and an injection volume of 10 μL at a run time of 35 minutes. [drawing 2]

[2] = Accelerated stability of Compound 1 tablets; oxidative degradation by-products by RPLC; type: physicochemical; conditions: addition of ferrous ion source to the formulation, six weeks
Experimental: Compound 1 was formulated with, inter alia, excipients comprising about 0.01% by weight of ammonium ferrous sulfate hexahydrate into solid binary pharmaceutical formulations as follows. A solution of 350 mg of ferrous ammonium sulfate hexahydrate, dissolved in 100 ml of pure water, was added to 500 g of microcrystalline cellulose (Avicel®; FMC; Philadelphia, Pa.) and the mixture was mixed thoroughly for about ten minutes. The mixture was then dried in an Aeromatic fluid-bed dryer (Niro Inc.; Columbia, Md.) at an inlet temperature of 65° C. The dried Avicel® excipient so prepared comprising the ferrous ion source was milled through a Mini-Comil 193 (Quadro Engineering; Waterloo, Ontario, Canada) with a stainless steel screen. This identical procedure was employed to prepare excipients comprising lactose and the ferrous ion source. A pre-determined amount of Compound 1, the dried Avicel® or lactose excipient comprising the ferrous ion source, and crospovidone (BASF Corp.; Mount Olive, N.J.) were added to a stainless steel V-blender and blended for about 20 minutes. Magnesium stearate was then added and the resulting mixture was blended for an additional five minutes. […]

Oc1ccc2c(c1)CC[C@H](c1ccccc1)[C@@H]2c1ccc(OCCN2CCCC2)cc1 (relative stereo) [Compound 2, cis-6-phenyl-5-[4-(2-pyrrolidin-1-yl-ethoxy)-phenyl]-5,6,7,8-tetrahydronaphthalen-2-ol]
formation of N-oxide oxidative degradation by-product on addition of the ferrous ion source [1]: inhibited significantly

COc1ccc(C(C)C)cc1CN[C@H]1C2CCN(CC2)[C@H]1C(c1ccccc1)c1ccccc1 [Compound 1, (2S,3S)-N-(5-isopropyl-2-methoxyphenyl)methyl-2-diphenylmethyl-1-azabicyclo[2.2.2]octan-3-amine]
formation of M+16 and M+32 oxidative degradation by-products on addition of the ferrous ion source [2]: inhibited significantly
